Test [1] has as its target T1, human α1G T-type channels (Homo sapiens, UniProt O43497).
T1 construct: expressed in transfected cells; host or cells: HEK 293
The test is described as follows: T-type calcium channel block, whole cell patch clamp (α1G). It is filed as cell-based. The note with it: HEK cells stably expressing human α1G; mainly non-inactivated protocol; values above 10 μM represented as 10 μM, values below 0.30 μM represented as 0.30 μM. As to the method:
(§1) T-type calcium channel blocking activity was assayed in human embryonic kidney cells, HEK 293, stably transfected with the T-type calcium channel subunits. Briefly, cells were cultured in Dulbecco's modified eagle medium (DMEM) supplemented with 10% fetal bovine serum, 200 U/ml penicillin and 0.2 mg/ml streptomycin at 37° C. with 5% CO2. At 85% confluency cells were split with 0.25% trypsin/1 mM EDTA and plated at 10% confluency on glass coverslips. At 12 hours the medium was replaced and the cells stably transfected using a standard calcium phosphate protocol and the appropriate calcium channel cDNA's. Fresh DMEM was supplied and the cells transferred to 28° C./5% CO2. Cells were incubated for 1 to 2 days prior to whole cell recording.
(§2) Standard patch-clamp techniques were employed to identify blockers of T-type currents. Briefly, previously described HEK cell lines stably expressing human α1G, α1H and α1I T-type channels were used for all the recordings (passage #: 4-20, 37° C., 5% CO2). Whole cell patch clamp experiments were performed using an Axopatch 200B amplifier (Axon Instruments, Burlingame, Calif.) linked to a personal computer equipped with pCLAMP software. Data were analyzed using Clampfit (Axon Instruments) and SigmaPlot 4.0 (Jandel Scientific). To obtain T-type currents, plastic dishes containing semi-confluent cells were positioned on the stage of a ZEISS AXIOVERT S100 microscope after replacing the culture medium with external solution (see below). Whole-cell patches were obtained using pipettes (borosilicate glass with filament, O.D.: 1.5 mm, I.D.: 0.86 mm, 10 cm length), fabricated on a SUTTER P-97 puller with resistance values of ˜5 MΩ (see below for internal solution).
(§3) In the non-inactivating protocol, the holding potential is set at −110 mV and with a pre-pulse at −100 mV for 1 second prior to the test pulse at −40 mV for 50 ms. In the inactivation protocol, the pre-pulse is at approximately −85 mV for 1 second, which inactivates about 15% of the T-type channels.
(§4) Test compounds were dissolved in external solution, 0.1-0.01% DMSO. After 10 min rest, they were applied by gravity close to the cell using a WPI microfil tubing. The “non-inactivated” pre-pulse was used to examine the resting block of a compound. The “inactivated” protocol was employed to study voltage-dependent block. However, the initial data shown below were mainly obtained using the non-inactivated protocol only. . IC50 values are shown for various compounds of the invention in Table 4 for the drug of interest. Values are shown in μM and values above 10 μM are simply represented as 10 μM.

In test [2] the target is T2, human α1H T-type channels (Homo sapiens, UniProt O95180).
T2 construct: expressed in transfected cells; host or cells: HEK 293
T2 sequence (O95180 whole entry): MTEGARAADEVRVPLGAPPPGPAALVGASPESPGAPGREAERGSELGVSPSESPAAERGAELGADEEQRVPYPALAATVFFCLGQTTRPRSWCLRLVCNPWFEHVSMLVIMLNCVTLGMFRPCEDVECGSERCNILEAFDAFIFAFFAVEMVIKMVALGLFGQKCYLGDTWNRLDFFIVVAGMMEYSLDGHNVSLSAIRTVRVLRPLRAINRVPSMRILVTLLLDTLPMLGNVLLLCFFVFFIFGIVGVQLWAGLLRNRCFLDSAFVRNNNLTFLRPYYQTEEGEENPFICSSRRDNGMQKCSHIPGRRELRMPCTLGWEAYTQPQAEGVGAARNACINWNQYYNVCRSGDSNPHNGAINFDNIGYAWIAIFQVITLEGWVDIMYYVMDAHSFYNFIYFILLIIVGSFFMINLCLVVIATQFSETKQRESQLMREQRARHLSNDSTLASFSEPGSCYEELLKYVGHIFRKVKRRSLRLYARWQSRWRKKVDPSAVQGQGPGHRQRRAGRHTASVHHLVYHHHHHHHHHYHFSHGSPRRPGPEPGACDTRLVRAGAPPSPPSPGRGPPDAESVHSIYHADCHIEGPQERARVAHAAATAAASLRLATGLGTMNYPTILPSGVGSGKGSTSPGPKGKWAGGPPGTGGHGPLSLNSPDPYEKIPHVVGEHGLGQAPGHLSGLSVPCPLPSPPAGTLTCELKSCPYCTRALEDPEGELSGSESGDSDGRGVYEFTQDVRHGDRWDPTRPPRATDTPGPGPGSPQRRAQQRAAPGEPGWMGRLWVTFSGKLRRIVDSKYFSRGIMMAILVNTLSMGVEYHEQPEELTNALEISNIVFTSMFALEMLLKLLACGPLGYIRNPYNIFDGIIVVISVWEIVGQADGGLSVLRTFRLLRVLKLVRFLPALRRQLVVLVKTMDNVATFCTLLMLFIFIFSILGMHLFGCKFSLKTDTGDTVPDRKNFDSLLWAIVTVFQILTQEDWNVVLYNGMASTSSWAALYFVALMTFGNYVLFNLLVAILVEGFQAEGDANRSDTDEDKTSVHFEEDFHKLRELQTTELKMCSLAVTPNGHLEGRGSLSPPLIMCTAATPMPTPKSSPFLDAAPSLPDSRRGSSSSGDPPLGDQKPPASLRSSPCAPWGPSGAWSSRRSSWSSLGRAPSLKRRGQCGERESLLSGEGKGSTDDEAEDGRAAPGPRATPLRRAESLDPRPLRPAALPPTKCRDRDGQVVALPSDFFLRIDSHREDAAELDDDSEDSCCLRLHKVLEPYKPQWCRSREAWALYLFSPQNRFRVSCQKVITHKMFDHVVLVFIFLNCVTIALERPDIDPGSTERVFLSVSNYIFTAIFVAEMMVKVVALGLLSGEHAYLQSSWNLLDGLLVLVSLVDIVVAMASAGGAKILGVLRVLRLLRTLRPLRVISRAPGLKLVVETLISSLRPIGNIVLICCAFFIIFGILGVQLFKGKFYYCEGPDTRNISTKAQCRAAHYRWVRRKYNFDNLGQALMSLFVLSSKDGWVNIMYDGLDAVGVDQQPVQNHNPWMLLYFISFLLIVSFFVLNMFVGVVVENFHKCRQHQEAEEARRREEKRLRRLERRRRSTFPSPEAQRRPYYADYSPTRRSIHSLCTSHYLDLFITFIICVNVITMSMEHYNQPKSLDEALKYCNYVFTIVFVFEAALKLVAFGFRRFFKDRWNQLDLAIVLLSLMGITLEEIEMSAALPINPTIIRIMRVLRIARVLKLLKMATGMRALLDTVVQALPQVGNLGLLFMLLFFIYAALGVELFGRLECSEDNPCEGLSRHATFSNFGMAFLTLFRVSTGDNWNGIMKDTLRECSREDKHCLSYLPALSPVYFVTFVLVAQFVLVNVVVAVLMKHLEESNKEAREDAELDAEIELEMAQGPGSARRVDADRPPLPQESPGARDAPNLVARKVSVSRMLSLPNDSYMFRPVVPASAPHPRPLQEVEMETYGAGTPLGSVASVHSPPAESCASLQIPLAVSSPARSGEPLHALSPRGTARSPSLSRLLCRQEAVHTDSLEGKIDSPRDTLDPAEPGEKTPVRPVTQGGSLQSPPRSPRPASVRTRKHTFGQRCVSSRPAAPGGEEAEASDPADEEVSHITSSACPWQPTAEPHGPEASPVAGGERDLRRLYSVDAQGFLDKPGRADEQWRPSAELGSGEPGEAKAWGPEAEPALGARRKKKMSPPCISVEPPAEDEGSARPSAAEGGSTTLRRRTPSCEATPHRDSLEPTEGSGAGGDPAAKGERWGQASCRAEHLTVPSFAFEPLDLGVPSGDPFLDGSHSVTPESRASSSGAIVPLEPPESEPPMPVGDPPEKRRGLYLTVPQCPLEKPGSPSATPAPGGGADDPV
Put plainly: T-type calcium channel block, whole cell patch clamp (α1H). The class given is cell-based. The note with it: HEK cells stably expressing human α1H; mainly non-inactivated protocol; values above 10 μM represented as 10 μM. Here is the method:
as §1, §2, §3, §4
For orientation: The patch-clamp technique gives a direct electrical read-out from membranes.

T1 sequence (O43497 whole entry): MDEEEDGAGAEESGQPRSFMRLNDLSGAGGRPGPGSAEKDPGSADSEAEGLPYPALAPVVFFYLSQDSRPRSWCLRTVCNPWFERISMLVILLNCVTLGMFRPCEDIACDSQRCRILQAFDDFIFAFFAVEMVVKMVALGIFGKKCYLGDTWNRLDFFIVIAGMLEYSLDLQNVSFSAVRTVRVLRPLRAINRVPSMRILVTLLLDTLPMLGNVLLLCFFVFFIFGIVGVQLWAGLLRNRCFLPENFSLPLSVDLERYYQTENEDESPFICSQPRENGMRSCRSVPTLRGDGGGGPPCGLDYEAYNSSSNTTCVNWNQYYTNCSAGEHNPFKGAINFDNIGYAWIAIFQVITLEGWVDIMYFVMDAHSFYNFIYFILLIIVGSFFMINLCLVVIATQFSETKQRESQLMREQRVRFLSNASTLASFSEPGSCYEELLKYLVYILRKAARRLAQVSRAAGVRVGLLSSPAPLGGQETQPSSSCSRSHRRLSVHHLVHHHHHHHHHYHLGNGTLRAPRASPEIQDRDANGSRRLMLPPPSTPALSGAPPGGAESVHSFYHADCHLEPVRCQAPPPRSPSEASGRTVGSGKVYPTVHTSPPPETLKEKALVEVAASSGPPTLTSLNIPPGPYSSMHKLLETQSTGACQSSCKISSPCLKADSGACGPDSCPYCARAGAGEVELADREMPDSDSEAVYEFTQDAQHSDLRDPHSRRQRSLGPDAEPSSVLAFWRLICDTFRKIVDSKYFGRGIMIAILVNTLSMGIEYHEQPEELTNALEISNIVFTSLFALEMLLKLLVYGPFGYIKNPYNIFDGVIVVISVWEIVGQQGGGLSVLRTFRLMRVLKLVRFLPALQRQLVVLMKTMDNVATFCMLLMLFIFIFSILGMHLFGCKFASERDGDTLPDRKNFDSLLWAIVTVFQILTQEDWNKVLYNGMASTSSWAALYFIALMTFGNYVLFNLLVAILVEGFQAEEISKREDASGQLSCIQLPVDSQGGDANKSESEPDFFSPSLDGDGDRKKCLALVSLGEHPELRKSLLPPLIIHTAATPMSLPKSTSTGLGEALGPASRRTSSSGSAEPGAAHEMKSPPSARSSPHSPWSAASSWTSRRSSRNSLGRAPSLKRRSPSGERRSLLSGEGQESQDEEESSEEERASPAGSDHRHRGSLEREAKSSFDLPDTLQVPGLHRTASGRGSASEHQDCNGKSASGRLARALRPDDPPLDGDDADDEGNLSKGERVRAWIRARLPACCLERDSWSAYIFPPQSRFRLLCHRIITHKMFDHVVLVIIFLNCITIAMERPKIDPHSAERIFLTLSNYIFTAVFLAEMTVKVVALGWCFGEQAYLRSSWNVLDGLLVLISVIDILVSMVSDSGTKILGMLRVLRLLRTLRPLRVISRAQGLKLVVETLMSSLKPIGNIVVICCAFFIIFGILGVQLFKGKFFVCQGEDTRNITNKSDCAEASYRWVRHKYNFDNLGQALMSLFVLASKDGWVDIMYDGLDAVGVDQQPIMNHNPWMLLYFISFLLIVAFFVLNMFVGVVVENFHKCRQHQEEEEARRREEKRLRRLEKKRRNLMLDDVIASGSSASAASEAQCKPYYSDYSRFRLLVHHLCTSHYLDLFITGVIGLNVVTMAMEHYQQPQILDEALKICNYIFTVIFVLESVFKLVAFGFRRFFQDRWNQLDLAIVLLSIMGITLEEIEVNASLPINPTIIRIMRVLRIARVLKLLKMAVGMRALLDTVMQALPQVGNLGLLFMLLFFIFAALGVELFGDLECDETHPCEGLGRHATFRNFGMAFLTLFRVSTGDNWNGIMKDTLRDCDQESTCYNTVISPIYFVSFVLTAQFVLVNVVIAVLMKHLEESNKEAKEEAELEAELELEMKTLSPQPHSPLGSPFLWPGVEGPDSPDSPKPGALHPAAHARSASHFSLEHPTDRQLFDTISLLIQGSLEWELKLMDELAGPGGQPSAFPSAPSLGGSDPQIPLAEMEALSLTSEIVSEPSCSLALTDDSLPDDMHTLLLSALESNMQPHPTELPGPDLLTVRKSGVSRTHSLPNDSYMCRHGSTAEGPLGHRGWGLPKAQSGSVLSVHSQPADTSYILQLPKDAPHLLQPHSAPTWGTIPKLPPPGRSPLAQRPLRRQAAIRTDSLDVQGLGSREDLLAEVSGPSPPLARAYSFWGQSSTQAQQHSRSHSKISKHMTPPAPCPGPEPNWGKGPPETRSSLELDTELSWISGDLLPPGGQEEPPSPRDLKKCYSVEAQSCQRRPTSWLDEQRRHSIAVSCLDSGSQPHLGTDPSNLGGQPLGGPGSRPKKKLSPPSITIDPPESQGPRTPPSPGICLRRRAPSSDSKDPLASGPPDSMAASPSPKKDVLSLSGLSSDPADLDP

As to `N[C@H]1CCCC[C@H]1C(=O)N[C@H]1CC[C@H](CC(=O)Nc2cc(C(F)(F)F)cc(C(F)(F)F)c2)CC1` [Compound 122, (1R,2S)-2-amino-N-(trans-4-(2-(3,5-bis(trifluoromethyl)phenylamino)-2-oxoethyl)cyclohexyl)cyclohexanecarboxamide], the IC50 (in general, the concentration that inhibits the measured activity by half) amounted to 840 nM in test [1] and 3620 nM in test [2].
The matching figures for `COc1cc(OC)cc(C(=O)NC[C@H]2CC[C@@H](NCC(=O)NC(C)(C)C)CC2)c1` [Compound 181, N-(((1s,4s)-4-(2-(tert-butylamino)-2-oxoethylamino)cyclohexyl)methyl)-3,5-dimethoxybenzamide]: 3650 nM and 330 nM.
For `CC1(C)COCCN1C(=O)CN[C@H]1CC[C@H](CNC(=O)c2cc(F)cc(Cl)c2)CC1` [Compound 203, 3-chloro-N-(((1r,4r)-4-(2-(3,3-dimethylmorpholino)-2-oxoethylamino)cyclohexyl)methyl)-5-fluorobenzamide], the IC50 in test [1] turned out to be 6130 nM; in test [2], 2160 nM.
Turning to `COc1cccnc1CN[C@H]1CC[C@H](CNC(=O)c2cc(C(F)(F)F)cc(C(F)(F)F)c2)CC1` [Compound 30, N-((trans-4-((3-methoxypyridin-2-yl)methylamino)cyclohexyl)methyl)-3,5-bis(trifluoromethyl)benzamide], the IC50 came out at 1060 nM in test [1] and 5830 nM in test [2].
For `CC(C)(C)NC(=O)CN[C@H]1CC[C@@H](CNC(=O)c2cccc(OC(F)(F)F)c2)CC1` [Compound 185, N-(((1s,4s)-4-(2-(tert-butylamino)-2-oxoethylamino)cyclohexyl)methyl)-3-(trifluoromethoxy)benzamide], the values for the IC50 in test [1] and in test [2] were 790 nM and 330 nM, respectively.
In the same order, the values of `O=C(NC[C@H]1CC[C@@H](NCc2ccccc2O)CC1)c1cc(F)cc(C(F)(F)F)c1` [Compound 15, 3-fluoro-N-((cis-4-(2-hydroxybenzylamino)cyclohexyl)methyl)-5-(trifluoromethyl)benzamide] are 780 nM and 1650 nM.
With `O=C(C[C@H]1CC[C@@H](NC(=O)[C@@H]2CCCN2)CC1)Nc1cc(C(F)(F)F)cc(C(F)(F)F)c1` [Compound 143, (S)-N-(cis-4-(2-(3,5-bis(trifluoromethyl)phenylamino)-2-oxoethyl)cyclohexyl)pyrrolidine-2-carboxamide], the IC50 was determined as 1900 nM in test [1] and 9940 nM in test [2].
The matching figures for `COc1cc(F)cc(C(=O)NC[C@H]2CC[C@H](NCC(=O)NC3(C)CCC3)CC2)c1` [Compound 207, 3-fluoro-5-methoxy-N-(((1r,4r)-4-(2-(1-methylcyclobutylamino)-2-oxoethylamino)cyclohexyl)methyl)benzamide]: 3820 nM and 920 nM.
The matching figures for `COc1ccccc1CN[C@H]1CC[C@@H](CNC(=O)c2cc(C(F)(F)F)cc(C(F)(F)F)c2)CC1` [Compound 10, N-((cis-4-(2-methoxybenzylamino)cyclohexyl)methyl)-3,5-bis(trifluoromethyl)benzamide]: 470 nM and 320 nM.
The matching figures for `O=C(NC[C@H]1CC[C@@H](NC(=O)[C@@H]2C[C@@H](c3ccccc3)CN2)CC1)c1cc(C(F)(F)F)cc(C(F)(F)F)c1` [Compound 125, (2S,4S)-N-(cis-4-((3,5-bis(trifluoromethyl)benzamido)methyl)cyclohexyl)-4-phenylpyrrolidine-2-carboxamide]: 940 nM and 2430 nM.
For `COCC(C)(C)N(C)C(=O)CN[C@H]1CC[C@@H](CNC(=O)c2cc(F)cc(OC)c2)CC1` [Compound 214, 3-fluoro-5-methoxy-N-(((1s,4s)-4-(2-((1-methoxy-2-methylpropan-2-yl)(methyl)amino)-2-oxoethylamino)cyclohexyl)methyl)benzamide], the values for the IC50 in test [1] and in test [2] were 5820 nM and 710 nM, respectively.
For `CCC(CC)NC(=O)CN[C@H]1CC[C@@H](CNC(=O)c2cc(C(F)(F)F)cc(C(F)(F)F)c2)CC1` [Compound 42, N-((cis-4-(2-oxo-2-(pentan-3-ylamino)ethylamino)cyclohexyl)methyl)-3,5-bis(trifluoromethyl)benzamide], the IC50 was at most 300 nM in test [1] and 120 nM in test [2].
The matching figures for `O=C(NC[C@H]1CC[C@H](NCc2cccc(F)c2O)CC1)c1cc(C(F)(F)F)cc(C(F)(F)F)c1` [Compound 31, N-((trans-4-(3-fluoro-2-hydroxybenzylamino)cyclohexyl)methyl)-3,5-bis(trifluoromethyl)benzamide]: at most 300 nM and 2470 nM.
Take `CN(C(=O)CN[C@H]1CC[C@@H](CNC(=O)c2cc(C(F)(F)F)cc(C(F)(F)F)c2)CC1)C1CCCC1` [Compound 44, N-((cis-4-(2-(cyclopentyl(methyl)amino)-2-oxoethylamino)cyclohexyl)methyl)-3,5-bis(trifluoromethyl)benzamide]: the IC50 in test [1] is at most 300 nM; in test [2], 260 nM.
The matching figures for `CC1CCCCN1C(=O)CN[C@H]1CC[C@@H](CNC(=O)c2cc(C(F)(F)F)cc(C(F)(F)F)c2)CC1` (stereo partly drawn) [Compound 72, N-((cis-4-(2-(2-methylpiperidin-1-yl)-2-oxoethylamino)cyclohexyl)methyl)-3,5-bis(trifluoromethyl)benzamide]: at most 300 nM and 230 nM.
As to `Cc1ccc(-c2csc(NC(=O)C[C@H]3CC[C@@H](NCC(C)(C)NC(=O)OC(C)(C)C)CC3)n2)cc1` [Compound 38, tert-butyl 2-methyl-1-(cis-4-(2-oxo-2-(4-p-tolylthiazol-2-ylamino)ethyl)cyclohexylamino)propan-2-ylcarbamate], the 50% inhibitory concentration (IC50) in test [2] was determined as 7930 nM.
The same measure, in the same setting: the result for `O=C(CC1CC1)NCCN[C@H]1CC[C@H](CNC(=O)c2cc(C(F)(F)F)cc(C(F)(F)F)c2)CC1` [Compound 103, N-((trans-4-(2-(2-cyclopropylacetamido)ethylamino)cyclohexyl)methyl)-3,5-bis(trifluoromethyl)benzamide] reads 2080 nM.
Still for that read-out and setting: the same measure for `O=C(NC[C@H]1CC[C@@H](N2CC(C(F)(F)F)(C(F)(F)F)OC2=O)CC1)c1cc(F)cc(C(F)(F)F)c1` [Compound 154, 3-fluoro-N-((cis-4-(2-oxo-5,5-bis(trifluoromethyl)oxazolidin-3-yl)cyclohexyl)methyl)-5-(trifluoromethyl)benzamide]: 6160 nM; for `CC(C)(C)OC(=O)NCCN[C@H]1CC[C@@H](CNC(=O)c2cc(Cl)cc(C(F)(F)F)c2)CC1` [Compound 99, tert-butyl 2-(cis-4-((3-chloro-5-(trifluoromethyl)benzamido)methyl)cyclohexylamino)ethylcarbamate]: 440 nM; for `COc1ccc(CN[C@H]2CC[C@@H](CC(=O)Nc3nc(-c4ccc(C)cc4)cs3)CC2)c(O)c1` [Compound 36, 2-(cis-4-(2-hydroxy-4-methoxybenzylamino)cyclohexyl)-N-(4-p-tolylthiazol-2-yl)acetamide]: at least 10000 nM.
Still for that read-out and setting: the result for `CC(C)(C)OC(=O)NC1(CN[C@H]2CC[C@@H](CNC(=O)c3cc(C(F)(F)F)cc(C(F)(F)F)c3)CC2)CCCC1` [Compound 6, tert-butyl 1-((cis-4-((3,5-bis(trifluoromethyl)benzamido)methyl)cyclohexylamino)methyl)cyclopentylcarbamate] reads 280 nM.

The values are drawn from patent US20090298834A1, “4-(AMINOMETHYL)CYCLOHEXANAMINE DERIVATIVES AS CALCIUM CHANNEL BLOCKERS” (priority 2008, published 2009).
